Laboratory results taken from ChEMBL document CHEMBL3351379, “Dihydropyrrolo[2,3-d]pyrimidines: Selective Toll-Like Receptor 9 Antagonists from Scaffold Morphing Efforts” (ACS Med Chem Lett, 2014).
In brackets after ≈: the same amount, converted by molar mass.

molecular target: T1, Toll-like receptor 9 (Homo sapiens, UniProt Q9NR96); experiment: Antagonist activity at human TLR9 transfected in HEK293 cells after 6 hrs by NF-kappaB luciferase reporter assay; format: cell-based; conditions: not given
T1 sequence (Q9NR96 whole entry): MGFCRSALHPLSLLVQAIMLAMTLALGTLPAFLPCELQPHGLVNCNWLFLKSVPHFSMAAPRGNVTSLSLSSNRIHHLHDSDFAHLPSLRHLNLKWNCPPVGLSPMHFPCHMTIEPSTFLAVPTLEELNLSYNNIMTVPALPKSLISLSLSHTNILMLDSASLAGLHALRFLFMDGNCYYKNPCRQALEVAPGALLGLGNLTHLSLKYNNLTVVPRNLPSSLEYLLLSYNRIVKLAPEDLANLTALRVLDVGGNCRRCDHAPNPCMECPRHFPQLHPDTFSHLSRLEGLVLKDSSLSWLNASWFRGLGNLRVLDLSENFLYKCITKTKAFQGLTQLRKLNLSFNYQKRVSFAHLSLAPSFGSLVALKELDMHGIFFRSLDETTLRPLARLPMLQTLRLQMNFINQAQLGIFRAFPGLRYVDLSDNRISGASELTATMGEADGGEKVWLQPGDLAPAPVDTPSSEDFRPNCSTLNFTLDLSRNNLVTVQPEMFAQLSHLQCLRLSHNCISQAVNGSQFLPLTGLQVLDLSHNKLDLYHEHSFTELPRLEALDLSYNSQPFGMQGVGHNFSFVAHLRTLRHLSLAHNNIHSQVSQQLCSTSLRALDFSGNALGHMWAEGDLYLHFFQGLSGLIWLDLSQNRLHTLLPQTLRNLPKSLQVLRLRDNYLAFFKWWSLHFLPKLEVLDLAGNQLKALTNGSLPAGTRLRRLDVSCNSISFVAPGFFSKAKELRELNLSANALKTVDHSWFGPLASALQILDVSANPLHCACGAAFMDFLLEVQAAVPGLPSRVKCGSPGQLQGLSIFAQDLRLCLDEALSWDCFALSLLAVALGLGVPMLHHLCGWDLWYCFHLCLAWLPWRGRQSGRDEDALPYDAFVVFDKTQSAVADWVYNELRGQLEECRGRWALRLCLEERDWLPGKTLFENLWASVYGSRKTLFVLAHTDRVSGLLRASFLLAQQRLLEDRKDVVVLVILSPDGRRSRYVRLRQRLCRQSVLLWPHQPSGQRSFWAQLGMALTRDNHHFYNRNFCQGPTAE

Structure (SMILES)	IC50 [nM]
Cc1nc(-c2ccc(N3CCN(C)CC3)cc2)nc2c1CCN2CCCN1CCCC1	3.5
Cc1nc(-c2ccc(N3CCN(C)CC3)cc2)nc2c1CCN2CCCN1CCOCC1	16
CN1CCN(c2ccc(-c3nc(N(C)C)c4c(n3)N(CCCN3CCCC3)CC4)cc2)CC1	73
Cc1nc(-c2ccc(N3CCN(C)CC3)cc2)nc2c1CCN2CCN1CCCC1	11
COc1nc(-c2ccc(N3CCN(C)CC3)cc2)nc2c1CCN2CCCN1CCCC1	120
CN1CCN(c2ccc(-c3ncc4c(n3)N(CCCN3CCOCC3)CC4)cc2)C(=O)C1	> 1000
CN1CCN(c2ccc(-c3nccc(NCCN4CCOCC4)n3)cc2)CC1	190
OCCN1CCN(c2ccc(-c3ncc4c(n3)N(CCCN3CCOCC3)CC4)cc2)CC1	13
CN1CCN(c2ccc(-c3ncc4c(n3)N(CCCN3CCOCC3)CC4)cc2)CC1	8.6
Cc1nc(-c2ccc(N3CCN(C)CC3)cc2)nc(NCCN2CCOCC2)c1C	35
CN1CCN(c2ccc(-c3nc(Cl)c4c(n3)N(CCCN3CCCC3)CC4)cc2)CC1	84
CN1CCN(c2ccc(-c3ncc4c(n3)N(CCCN3CCCC3)CC4)cc2)CC1	3.9
CN1CCN(c2ccc(-c3nc4c(c(NCCN5CCOCC5)n3)COCC4)cc2)CC1	190
CN1CCN(c2ccc(-c3nc4c(c(NCCN5CCOCC5)n3)CCCC4)cc2)CC1	27
CN1CCN(c2ccc(-c3ncc4c(n3)N(CCN3CCOCC3)CC4)cc2)CC1	73
COc1cc2nc(-c3ccc(N4CCN(C)CC4)cc3)nc(NCCN3CCOCC3)c2cc1OC	4.6
CN1CCN(c2cccc(-c3ncc4c(n3)N(CCCN3CCOCC3)CC4)c2)CC1	56
Cc1nc(-c2ccc(N3CCN(C)CC3)cc2)nc2c1CCN2CCN1CCOCC1	20
CN1CCN(c2ccccc2-c2ncc3c(n2)N(CCCN2CCOCC2)CC3)CC1	56
COCCN1CCN(c2ccc(-c3ncc4c(n3)N(CCCN3CCOCC3)CC4)cc2)CC1	28
Cc1cnc(-c2ccc(N3CCN(C)CC3)cc2)nc1NCCN1CCOCC1	120
CN1CCN(c2ccc(-c3ncc4c(n3)N(CCCCN3CCOCC3)CC4)cc2)CC1	11

molecular target: T2, Toll-like receptor 7 (Homo sapiens, UniProt Q9NYK1); experiment: Antagonist activity at human TLR7 transfected in HEK293 cells assessed as hydrolysis of pNPP after 24 hrs by SEAP reporter assay; format: cell-based; conditions: not given
T2 sequence (Q9NYK1 whole entry): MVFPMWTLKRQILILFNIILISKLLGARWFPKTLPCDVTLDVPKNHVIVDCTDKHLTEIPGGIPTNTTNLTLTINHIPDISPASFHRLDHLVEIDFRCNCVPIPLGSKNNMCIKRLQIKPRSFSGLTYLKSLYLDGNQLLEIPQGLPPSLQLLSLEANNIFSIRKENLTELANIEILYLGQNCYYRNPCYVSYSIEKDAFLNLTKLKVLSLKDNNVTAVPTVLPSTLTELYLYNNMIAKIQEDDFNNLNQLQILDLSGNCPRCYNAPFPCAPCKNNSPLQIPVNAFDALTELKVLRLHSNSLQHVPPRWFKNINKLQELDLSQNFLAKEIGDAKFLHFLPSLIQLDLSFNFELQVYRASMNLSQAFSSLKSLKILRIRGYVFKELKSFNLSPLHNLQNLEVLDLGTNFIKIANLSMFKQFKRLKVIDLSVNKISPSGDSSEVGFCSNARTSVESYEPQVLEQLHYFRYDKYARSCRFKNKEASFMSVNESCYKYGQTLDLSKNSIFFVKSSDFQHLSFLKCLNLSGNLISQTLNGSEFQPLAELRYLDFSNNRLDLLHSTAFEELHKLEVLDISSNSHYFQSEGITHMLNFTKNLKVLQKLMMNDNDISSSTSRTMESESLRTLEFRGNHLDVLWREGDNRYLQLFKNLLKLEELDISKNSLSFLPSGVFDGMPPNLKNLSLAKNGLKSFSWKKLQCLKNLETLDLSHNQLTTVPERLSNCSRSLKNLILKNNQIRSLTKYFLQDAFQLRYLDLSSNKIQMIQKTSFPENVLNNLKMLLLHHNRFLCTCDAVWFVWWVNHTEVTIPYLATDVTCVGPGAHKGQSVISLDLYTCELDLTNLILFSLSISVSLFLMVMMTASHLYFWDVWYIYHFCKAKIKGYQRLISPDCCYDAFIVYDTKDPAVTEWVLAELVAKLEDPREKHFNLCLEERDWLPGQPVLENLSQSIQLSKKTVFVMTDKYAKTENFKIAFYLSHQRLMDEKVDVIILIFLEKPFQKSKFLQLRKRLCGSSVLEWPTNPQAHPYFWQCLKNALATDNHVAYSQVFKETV

Structure (SMILES)	IC50 [nM]
OCCN1CCN(c2ccc(-c3ncc4c(n3)N(CCCN3CCOCC3)CC4)cc2)CC1	970

molecular target: T3, Toll-like receptor 8 (Homo sapiens, UniProt Q9NR97); experiment: Antagonist activity at human TLR8 transfected in HEK293 cells after 6 hrs by NF-kappaB luciferase reporter assay; format: cell-based; conditions: not given
T3 sequence (Q9NR97 whole entry): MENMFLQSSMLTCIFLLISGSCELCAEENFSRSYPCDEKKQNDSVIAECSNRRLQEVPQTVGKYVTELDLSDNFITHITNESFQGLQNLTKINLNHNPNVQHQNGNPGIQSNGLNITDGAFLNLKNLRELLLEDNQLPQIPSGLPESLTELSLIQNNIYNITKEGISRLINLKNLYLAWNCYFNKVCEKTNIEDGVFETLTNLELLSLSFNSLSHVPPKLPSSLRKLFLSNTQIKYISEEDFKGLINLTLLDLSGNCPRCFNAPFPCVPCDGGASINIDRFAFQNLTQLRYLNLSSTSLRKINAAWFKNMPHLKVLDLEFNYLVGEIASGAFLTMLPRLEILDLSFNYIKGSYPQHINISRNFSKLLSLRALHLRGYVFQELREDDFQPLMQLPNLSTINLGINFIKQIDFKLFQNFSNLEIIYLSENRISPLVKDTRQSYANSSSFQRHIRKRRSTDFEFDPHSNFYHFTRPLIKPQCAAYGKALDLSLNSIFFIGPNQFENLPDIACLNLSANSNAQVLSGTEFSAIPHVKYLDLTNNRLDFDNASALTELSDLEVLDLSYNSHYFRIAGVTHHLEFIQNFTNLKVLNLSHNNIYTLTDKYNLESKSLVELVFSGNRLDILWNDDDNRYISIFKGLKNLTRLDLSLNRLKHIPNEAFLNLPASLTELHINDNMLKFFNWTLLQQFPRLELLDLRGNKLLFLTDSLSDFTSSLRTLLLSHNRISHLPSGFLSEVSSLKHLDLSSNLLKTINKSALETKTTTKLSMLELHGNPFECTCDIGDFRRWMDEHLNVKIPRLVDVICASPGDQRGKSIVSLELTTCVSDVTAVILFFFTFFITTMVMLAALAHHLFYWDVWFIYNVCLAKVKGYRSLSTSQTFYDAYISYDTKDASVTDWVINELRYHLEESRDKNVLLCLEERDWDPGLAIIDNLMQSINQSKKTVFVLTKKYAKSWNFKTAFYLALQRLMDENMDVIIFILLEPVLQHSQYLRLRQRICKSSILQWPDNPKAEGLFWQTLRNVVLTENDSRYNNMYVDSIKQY

Structure (SMILES)	IC50 [nM]
OCCN1CCN(c2ccc(-c3ncc4c(n3)N(CCCN3CCOCC3)CC4)cc2)CC1	> 10000

test system: Splenocyte; experiment: Inhibition of CpG-induced IL-6 production in C57BL/6 mouse splenocytes after 24 hrs by ELISA; format: functional, cell-based; conditions: C57BL/6, Splenocyte

Structure (SMILES)	IC50 [nM]
OCCN1CCN(c2ccc(-c3ncc4c(n3)N(CCCN3CCOCC3)CC4)cc2)CC1	74

test system: PBMC; experiment: Inhibition of CpG-induced IL-6 production in human PBMC after 24 hrs by ELISA; format: functional, cell-based; conditions: not given

Structure (SMILES)	IC50 [nM]
OCCN1CCN(c2ccc(-c3ncc4c(n3)N(CCCN3CCOCC3)CC4)cc2)CC1	244

test system: Mus musculus; experiment: Inhibition of IL-6 production in iv dosed C57BL/6 mouse plasma compound administered 1 hr prior to CpG1826 treatment measured after 2 hrs by ELISA; format: functional; conditions: C57BL/6, Plasma

Structure (SMILES)	ED50 [mg/kg]
OCCN1CCN(c2ccc(-c3ncc4c(n3)N(CCCN3CCOCC3)CC4)cc2)CC1	0.8

test system: Mus musculus; experiment: Inhibition of IL-6 production in iv dosed C57BL/6 mouse peritoneal lavage fluid compound administered 1 hr prior to CpG1826 treatment measured after 2 hrs by ELISA; format: functional, organism-based; conditions: not given

Structure (SMILES)	inhibition
OCCN1CCN(c2ccc(-c3ncc4c(n3)N(CCCN3CCOCC3)CC4)cc2)CC1	Dose-dependent effect

test system: HEK293; experiment: Selectivity ratio of IC50 for human TLR7 transfected in HEK293 cells to IC50 for human TLR9 transfected in HEK293 cells; format: cell-based; conditions: not given

Structure (SMILES)	Ratio IC50
OCCN1CCN(c2ccc(-c3ncc4c(n3)N(CCCN3CCOCC3)CC4)cc2)CC1	75
CN1CCN(c2ccc(-c3ncc4c(n3)N(CCCN3CCOCC3)CC4)cc2)CC1	> 50
CN1CCN(c2ccc(-c3nc4c(c(NCCN5CCOCC5)n3)CCCC4)cc2)CC1	71
Cc1nc(-c2ccc(N3CCN(C)CC3)cc2)nc2c1CCN2CCN1CCOCC1	93

organism: Homo sapiens; experiment: Metabolic stability in human assessed per mg protein; format: ADME; conditions: not given

Structure (SMILES)	Stability [µL/min/mg]
Cc1nc(-c2ccc(N3CCN(C)CC3)cc2)nc2c1CCN2CCCN1CCCC1	35
Cc1nc(-c2ccc(N3CCN(C)CC3)cc2)nc2c1CCN2CCCN1CCOCC1	< 10
Cc1nc(-c2ccc(N3CCN(C)CC3)cc2)nc(NCCN2CCOCC2)c1C	69
CN1CCN(c2ccc(-c3ncc4c(n3)N(CCCN3CCCC3)CC4)cc2)CC1	71
Cc1nc(-c2ccc(N3CCN(C)CC3)cc2)nc2c1CCN2CCN1CCOCC1	< 10

test system: not listed separately; experiment: Aqueous solubility of the compound at pH 7.4; format: physicochemical; conditions: not given

Structure (SMILES)	solubility [µg/mL]
OCCN1CCN(c2ccc(-c3ncc4c(n3)N(CCCN3CCOCC3)CC4)cc2)CC1	> 10000
CN1CCN(c2ccc(-c3ncc4c(n3)N(CCCN3CCOCC3)CC4)cc2)CC1	1100 (≈ 2600 µM)
COc1cc2nc(-c3ccc(N4CCN(C)CC4)cc3)nc(NCCN3CCOCC3)c2cc1OC	120 (≈ 244 µM)
